Reference: patent publication US20230321083A1, “Inhibitors of GPR174 and Uses Thereof” (Omeros Corporation, priority 2016, published 2023)

How the values were obtained:
Type in all cases: cell-based
[1] = test system: human PBMCs; assay: Treg (FoxP3/Helios) flow cytometry in anti-CD3/anti-CD28 stimulated human PBMCs
Method: (§1) A fraction of the cells was taken for staining on day 3 post-stimulation, while the rest of the cells were split 1:4 with fresh medium and used for staining on day 7 post-stimulation. To determine the fraction of natural Treg (nTreg) cells (FoxP3^+Helios^+), PBMCs were washed, stained with fluorescently labeled anti-CD4 antibodies, fixed, permeabilized and stained with a mixture of fluorescent anti-FoxP3 and anti-Helios antibodies. Labeled cells were analyzed by flow cytometry for populations stained for these three markers. Each experiment was performed in triplicate and was repeated five times.
as §1, with “three” for “five”
as §1, with “day 2” for “day 3”, “(FoxP3^+Helios^+), PBMC” for “(FoxP3^+Helios^+), PBMCs”

[2] = test system: human PBMCs; assay: Cytokines in culture supernatants of stimulated human PBMCs (ELISA / LEGENDplex)
Method: The effect of compound #10 on IL-2 and IFN-γ production in human PBMCs was determined as follows. PBMCs from a single donor were adjusted to a density of 2×10^6 cells/mL, stimulated with 100 ng/mL of anti-CD3 and 100 ng/mL of anti-CD28 antibodies and treated with 1 μM, 3 μM, or 10 μM of compound #10. Supernatant from these cells was taken on day 2 post-stimulation and the levels of IL-2 and IFN-γ were determined by ELISA assay using Ready-SET-Go ELISA kits from Affimetrix Ebioscience according to the manufacturer's instructions.
The effect of compound #10 on IL-2 production in human PBMCs was determined as follows. […] Supernatant from these cells was taken on day 3 post-stimulation and the levels of IL-2 were determined by ELISA assay using Ready-SET-Go™ ELISA kits from Affimetrix Ebioscience and LEGENDplex™ bead-based immunoassays from BioLegend according to the manufacturer's instructions.
The effect of compound #10 on IL-2 production in human PBMC from each donor was determined as follows. PBMC from each donor were adjusted to a density of 2×10^6 cells/mL, stimulated with 100 ng/mL of anti-CD3 and 100 ng/mL of anti-CD28 antibodies and treated with 30 μM compound #10. Supernatant from these cells was taken on day 2 post-stimulation and the levels of IL-2 were determined by ELISA assay using LEGENDplex™ bead-based immunoassays from BioLegend (San Diego, CA) according to the manufacturer's instructions.
The effect of compound #10 on the production of a panel of additional cytokines (interleukin 5 (IL-5), interleukin 13 (IL-13), interleukin 6 (IL-6), interleukin 9 (IL-9), interleukin 10 (IL-10), interferon gamma (IFN-γ), tumor necrosis factor alpha (TNF-α), interleukine 17A (IL-17A), interleukin 17F (IL-17F), interleukin 4 (IL-4) and interleukin 22 (IL-22)) in pooled human PBMC obtained from eight donors was determined as follows. PBMC from eight donors were pooled, then adjusted to a density of 2×10^6 cells/mL, stimulated with 100 ng/mL of anti-CD3 and 100 ng/mL of anti-CD28 antibodies and treated with 30 μM compound #10. Supernatant from these cells was taken on day 2 post-stimulation and the levels of IL-5, IL-13, IL-6, IL-9, IL-10, IFN-γ, TNF-α, IL-17A, IL-17F, IL-4 and IL-22 were determined by ELISA using LEGENDplex™ bead-based immunoassays from BioLegend (San Diego, CA) according to the manufacturer's instructions.

[3] = target: GPR174 (Homo sapiens, UniProt Q9BXC1); assay: CRE-Luc reporter Gs signaling assay, cells transfected with GPR174; design: host or cells: HEK293 or CHO cell lines (ATCC); conditions: CRE-Luc reporter
Chain of GPR174 (Q9BXC1 whole entry): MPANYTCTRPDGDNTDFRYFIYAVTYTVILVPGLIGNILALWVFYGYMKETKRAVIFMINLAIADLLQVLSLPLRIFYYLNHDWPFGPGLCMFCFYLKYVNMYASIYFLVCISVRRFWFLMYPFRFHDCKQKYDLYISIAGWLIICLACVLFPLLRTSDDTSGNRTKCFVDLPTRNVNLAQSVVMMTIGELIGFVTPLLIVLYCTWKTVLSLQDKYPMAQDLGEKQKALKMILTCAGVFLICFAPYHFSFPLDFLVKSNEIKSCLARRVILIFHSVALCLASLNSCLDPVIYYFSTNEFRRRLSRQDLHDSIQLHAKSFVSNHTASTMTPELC
Method: Compounds were tested in the reporter system with increasing concentrations of GPR174-interacting compounds. GPR174 construct pCMV6-XL4-GPR174 or ADBR2, reporter of interest, pCRE-Luc or GL4.29 (3000 ng), and TK-renilla as an internal control (10 ng) with lipofectamine 2000 (60 ug) (Invitrogen, CA) according to the manufacturer's directions.
The DNA/lipofectamine 2000 mix (3000 μL) was incubated at room temperature for 30 minutes and then added into a 10 cm culture dish (Corning, NY) containing 70-90% confluent cultured cells, typically HEK293 or CHO cell lines (ATCC, VA), in 15 mL of media. The cells were further incubated for 4-6 hours at 37° C. and then media were removed and cells were detached with 2 mL trypsin (Life Technologies, CA). Media (26 mL) were added to the detached cells and 120 μL of transfected cells were transferred to each well on a 96-well plate. Increasing concentration of each compound in DMSO (1.2 μl) was added to the cells after plating into the 96-well plate. The cells were further incubated at 37° C. for various times. The media were removed and the cells lysed. Luciferase and renilla activities were measured with the Dual-luciferase assay system (Promega, WI) according to the manufacturer's directions. Typically, lysis buffer (25 μL) was added to the cells and incubated at room temperature for 20-30 minutes to allow for the cells to lyse. The lysate (10 μL) was measured for luciferase and renilla activity with LARII and Stop&Glo reagent (50 μL each) with a SpectraMax L (Molecular Devices, CA). Data were analyzed with either Excel (Microsoft, WA) or Prism 4.03 (GraphPad, CA).
ADBR2 is a GPCR, like GPR174, that activates the Gs signaling pathway.

[4] = day 2, 30 μM, PBMC from eight donors, p<0.001
[5] = day 2, 30 μM, PBMC from eight donors, p<0.05

## CC1CCN(c2cc(N3CCN(S(=O)(=O)c4ccccc4)CC3)c([N+](=O)[O-])cc2F)CC1 [Compound 10]
[1]; day 3 post-stimulation, 100 μM, p=0.03 vs vehicle
  fraction of FoxP3+Helios− cells in CD4+ population: significantly increased
[1]; day 7, 30 μM, PBMC from eight donors
  abundance of FoxP3+Helios+ nTreg cells (fraction of vehicle): significantly reduced
[1]; day 7, 3, 10, 30 μM, single donor, dose-dependent
  abundance of FoxP3+Helios+ nTreg cells in CD4+ population: significantly reduced
[1]; day 7 post-stimulation, 100 μM, p=0.01 vs vehicle
  abundance of FoxP3+Helios+ nTreg cells in CD4+ population: significantly reduced
[2]; [4]
  IL-6 in culture supernatants (fold over vehicle): statistically significant fold increase
  IL-17A in culture supernatants (fold over vehicle): statistically significant fold decrease
[2]; [5]
  IFN-γ in culture supernatants (fold over vehicle): statistically significant fold increase
  IL-10 in culture supernatants (fold over vehicle): statistically significant fold increase
  TNF-α in culture supernatants (fold over vehicle): statistically significant fold increase
[2]; day 3 post-stimulation, 3, 10, 30, 60 μM, single donor
  IL-2 (pg/mL) in culture supernatants: increased IL-2 levels in culture supernatants in a dose-dependent manner
[3]
  effect on Gs pathway in the presence of GPR174: inhibited the Gs pathway
